Reference: patent US10548906B2, “Methods of promoting hepatic regeneration” (Intercept Pharmaceuticals, Inc., priority 2015, dated 2020)

What was measured:
Wistar rats = experiment: Hepatobiliary injury markers and histology in rBDL rats before and after PHx (Example 6); format: in vivo, rat
Experimental: At baseline (i.e., directly before PHx) and one to five days after PHx, animals were euthanized under isoflurane anesthesia by exsanguination. Blood samples were collected from the caval vein in heparin-anticoagulated vacutainers (BD, Franklin Lakes, N.J.) and centrifuged for 10 min (3000×g, 4° C.). In rBDL animals sacrificed at baseline, bile was aspirated with a syringe from the dilated extrahepatic bile duct, weighed, and stored at −80° C. The liver and ileum were excised, weighed, loafed, and either fixed in a 10% (vol/vol) neutralized formalin solution (J. T. Baker, Center Valley, Pa.), snap-frozen in liquid nitrogen and stored at −80° C., or collected in RNAlater (Qiagen, Venlo, the Netherlands) and stored at −20° C. Liver regrowth was calculated from the regenerated liver mass, and was expressed as percentage of total liver mass prior to PHx. The projected remnant liver mass was calculated using the weight of the resected liver segments, which represent 70% of the total liver mass. Dry liver weights were measured to correct for hepatic water content [Kloek 2010a].
After formalin fixation, liver specimens were dehydrated, paraffin-embedded, and stained with hematoxylin and eosin (H&E), the collagen type I and III stain picrosirius red, or the proliferation marker Ki67 [Marsman 2013]. Semi-quantitative analysis of H&E- and picrosirius red-stained liver histology was performed by an experienced hepatopathologist (JV) blinded to the experimental groups using a scoring system detailed in Table 1. Ki67-positive hepatocyte nuclei were manually counted by two observers (RFG and PBO) in four randomly-selected microscopic fields at 200× magnification.

[1] = system: New Zealand White rabbits; experiment: Portal vein embolization (PVE) in rabbits, 6-ECDCA vs vehicle (Example 4); format: in vivo, rabbit
Excerpt: Female New Zealand White rabbits with a mean weight of 3.0±0.5 kg were acclimatized for 1 week under standardized laboratory conditions in a temperature-controlled room. The animals were individually housed, had free access to standard laboratory food and water, and were subjected to a 12-h light/dark cycle per day. The rabbits were divided into two groups receiving 6-ECDCA and two control groups receiving vehicle. Specifically, the PVE study rabbits were divided into following groups: • Group 1: Normal diet (6-ECDCA 10 mg/kg/day, oral gavage) (N=6), animals sacrificed at day 7, post PVE. • Group 2: Normal diet (Vehicle) (N=6), animals sacrificed at day 7 post PVE. • Group 3: Normal diet (6-ECDCA 10 mg/kg/day, oral gavage) (N=6), animals sacrificed at day 3, post PVE. • Group 4: Normal diet (Vehicle) (N=6), animals sacrificed at day 3, post PVE.
The rabbit liver consists of four liver lobes, three of which are positioned cranially, with the fourth located caudally. In the rabbit PVE model the cranial liver lobes, which account for approximately 80% of the total liver volume, were embolized. The rabbit was placed in a supine position after subcutaneous injection of 0.03 mg/kg buprenorphine and 0.02 mg/kg enrofloxacin. Rabbits were given enrofloxacin 0.02 mg/kg subcutaneously once a day for 3d postoperatively. Animals were anesthetized by intramuscular injection of 25.0 mg/kg ketamine and 0.2 mg/kg dexmedetomidine. Isoflurane 1%-2% with O2/air (1:0.7 L/min) was used to maintain anesthesia. Heart rate and arterial oxygen saturation were measured by pulse oximetry continuously throughout the procedure.
To identify the individual portal branches, portography was performed. After passing the portal branch to the caudal liver lobe, a microcatheter was positioned into the main portal branch supplying the cranial liver lobes. Animals received an initial mixture of contrast (Visipaque) and 90-180 μm polyvinyl alcohol (PVA) particles, followed by injection of 300-500 μm PVA particles until cessation of flow and placement of three platinum coils (6 mm). Portography directly after PVE confirmed total occlusion of the cranial portal blood flow in the embolization groups. The hypertrophy and atrophy responses of the caudal and cranial lobes were measured using CT volumetry before embolization and on day 3 and 7 post-embolization.
Multiphasic CT scans were performed using a 64-slice CT scan (Brilliance 64-channel; Philips, Eindhoven, The Netherlands). Rabbits were placed in supine position. After a blank series, a contrast enhanced scan was performed 15 s (arterial phase), 30 s (portal phase), and 45 s (venous phase) after contrast injection (4 mL Visipaque), followed by 3 mL NaCl. 3D-reconstructions of the liver were made using reconstructed 2 mm axial slices. The total liver and the cranial and caudal liver lobes were manually delineated and total liver volume (TLV) and the caudal liver volume (CLV) and cranial liver volume (CrLV) were calculated.
The following measurements were carried out: (1) body weight, (2) computed tomography of the embolized and non-embolized lobes, (3) expression of cell cycle-related and bile salt homeostasis-related transcripts in the liver, (4) expression of ileal transcripts, and (5) serum total bile salt concentration.
Serum bile salt concentration was determined at baseline, at 3 h, and at days 1, 3, and 7 post PVE. […]

[2] = system: New Zealand White rabbits; experiment: PVE-induced liver growth in rabbits, CT volumetry and body weight (Example 5)
Experimental: PVE of the cranial liver lobes was performed using polyvinyl alcohol particles and coils at day 0. Caudal liver volume (CLV) was analyzed by CT volumetry at days −7, −1, +3 and +7. Liver function (i.e. mebrofenin uptake) was quantified in subgroups of animals using hepatobiliary scintigraphy. Additional parameters analyzed were plasma transaminase levels, histological scoring of H&E- and Ki67-stained liver sections, and FXR target gene expression.
Six groups of six rabbits were planned for PVE. […] Treatment was started 7 days before PVE, and continued until sacrifice at 3 or 7 days after PVE.
Under digital subtraction portography a Renegade 3F microcatheter (Boston Scientific, Natick, Mass.) with a Transend-ex 0.36 mm×182-cm guide wire (Boston Scientific) was positioned in the main portal branch to the cranial liver lobes. Polyvinyl alcohol particles (90-180 μm and 300-500 μm in diameter, Cook, Bloomington, Ind.) and 2 fibered platinum coils (4.0 and 6.0 mm; Boston Scientific) were infused through the catheter to occlude the portal branches to the cranial lobes. PVE was confirmed by portography, and the mesenteric vein was closed using a ligature. The abdomen was closed in two layers. Baytril was administered daily for 3 days following PVE.
Multiphase CT-scans (Brilliance 64, Philips, Eindhoven, The Netherlands) were performed at day −7, −1, +3, and +7. Animals (n=18 per treatment group) were anesthetized and a 22G catheter was placed in the lateral ear vein. A baseline scan was made and 3 mL of contrast solution (Visipaque, GE Healthcara, Waukesha, Wis.) was injected. Arterial, portal and venous phase scans were made after 15, 30, 45 seconds respectively. Volumetric analysis was performed on 3D reconstruction of 5-mm axial slices using manual delineation. Caudal liver volume (CLV) and total liver volume (TLV) were determined and increase in CLV was determined using the following formula:
The same formula was used to calculate the decrease in cranial liver volume (CrLV; CrLV=TLV−CLV). Increase in CLV and decrease in CrLV was calculated using day −1 values as baseline. […] Regeneration rate was calculated using the formula:

[3] = prior to PHx, vs control and untreated rBDL

Compound: CC[C@H]1[C@@H](O)[C@@H]2[C@H](CC[C@]3(C)[C@@H]([C@H](C)CCC(=O)O)CC[C@@H]23)[C@@]2(C)CC[C@@H](O)C[C@@H]12 [Compound 1, 3α,7α-dihydroxy-6α-ethyl-5β-cholanic acid]
- bilirubin clearance (Wistar rats; after PHx): lagged marginally
- decline of ALP levels (Wistar rats; after PHx): ~4 fold
- time to normalization of hepatobiliary injury markers (Wistar rats; after PHx, rBDL groups, recovery more gradual with OCA): ≤ 48 h
- ALP levels vs other study arms (Wistar rats; during regeneration): remained higher
- liver injury after hepatectomy (Wistar rats; histology day 5 after PHx): did not exacerbate liver injury after hepatectomy
- plasma gamma glutamyltransferase (Wistar rats; prior to PHx): followed the same dynamics as ALP
- plasma alanine aminotransferase (ALT) (Wistar rats; [3]): considerably higher
- plasma alkaline phosphatase (ALP) (Wistar rats; [3]): considerably higher
- increase in caudal liver volume (CLV) ([1]; CT, days 3 and 7 post embolization, FIG. 3): accelerates hypertrophy of the non-embolized lobe
- concentration of serum bile salts vs control ([1]; day 1 post PVE, FIG. 8): relatively lower
- body weight, difference vs vehicle ([1]; each day of the study, FIG. 2): not statistically significant
- decrease in cranial liver lobe volume (CrLV) ([1]; embolized lobe, FIG. 5): does not affect atrophy of the embolized lobe
- liver regeneration and liver mass ([1]; rabbit PVE model, 10 mg/kg/day oral gavage): accelerates liver regeneration and increases liver mass
- increase of CLV relative to vehicle controls ([2]; 3 days after PVE): 2.2 fold
- increase in caudal liver volume (CLV) ([2]; 3 days after PVE, relative to day −1, N=17): 56.1±20.3%
- increase of CLV relative to vehicle controls ([2]; day 7 after PVE): 1.5 fold
- increase in caudal liver volume (CLV) ([2]; day 7 after PVE, relative to day −1, N=11): 102.0±38.2%
- total liver volume (TLV) corrected for body weight ([2]; pre-treatment period day −7 until day −1, 10 mg/kg daily oral): did not induce spontaneous liver growth
- body weight decrease after PVE ([2]; vs vehicle): to a similar extent
